# Data: patent publication US7511027B2, “Method of treating hepatitis delta virus infection” (Georgetown University, priority 2000, dated 2009)
# Assays:
# [1] = test system: HDV; details: in vitro; cited from earlier work
# [2] = test system: WHV; assay: Woodchuck model of chronic HDV infection: serum WHV DNA; type: in vivo
# Protocol: (§1) The woodchuck was used as an experimental model of chronic HDV infection to assess the effect of L-FMAU treatment on HDV replication. Woodchucks chronically infected with WHV were infected with a woodchuck-adapted HDV inoculum derived from a laboratory infectious clone. Nine of eleven infected animals were determined to have chronic HDV infection, as defined by RT/PCR-detectable HDV viremia (Niro et al. (1997) Hepatology 25, 728-734) for at least 74% of bleed dates for at least 11 months prior to the initiation of treatment. The range of duration of viremia prior to the start of the study was 11.4-20 months; the range of positive bleed dates was 74% to 100%. Animals in the treatment group (4) were given 10 mg/kg L-FMAU daily; animals in the control group (5) were given placebo. Serum samples were obtained before the initiation of treatment, and at weeks 2, 4, 8, 12, 16 and 20. Serum samples were analyzed for WHV DNA, WHV surface antigen and HDV RNA.
# [3] = test system: WHV surface antigen; assay: Woodchuck model of chronic HDV infection: serum WHV surface antigen; type: in vivo
# Protocol: as §1
# [4] = test system: HDV; assay: Woodchuck model of chronic HDV infection: serum HDV RNA; type: in vivo
# Protocol: as §1
# [5] = test system: HDV; details: in vivo; cited from earlier work
# [6] = test system: hepatocytes; details: cited from earlier work
# [7] = one animal in the treated group, animal 4543
smiles,measurement,setting,value
Nc1nc2c(ncn2COCCO)c(=O)[nH]1 [Acyclovir],HDV replication,[1],enhances
"Cc1cn([C@H]2O[C@@H](CO)[C@H](O)[C@H]2F)c(=O)[nH]c1=O [L-FMAU, 2′-fluoro-5-methyl-β-L-arabinofuranosyl-uridine]",decrease in serum WHV DNA,"[2]; 10 mg/kg L-FMAU daily, by 4 weeks of treatment, all treated animals (FIG. 6B)",> 10^7 fold
same,serum WHV-DNA (FIG. 6B),[2]; over twenty weeks of treatment,significant decrease
same,decrease in surface antigen levels,"[3]; 10 mg/kg L-FMAU daily, by 12 weeks, all but one (animal 4543) of the treated animals (FIG. 6C)","~1,000 fold"
same,"levels of surface antigen, animal 4543",[3]; [7],did not exhibit decreased levels
same,serum WHsAg (FIG. 6C),[3]; over twenty weeks of treatment,significant decrease
same,surface antigen concentration after which HDV viremia became undetectable,"[3]; treated animals with decreased surface antigen, sustained for remainder of treatment",less than 1 microgram/mL
same,drop of WHsAg levels during treatment,"[3]; treated woodchucks 4878, 4879 and 4883",more than 100 fold
same,HDV RNA in serum,"[4]; 10 mg/kg L-FMAU daily, by 16 weeks of treatment (FIG. 6A)",undetectable in ¾ treated animals
same,"HDV viremia, animal 4543",[4]; [7],remained high
same,serum HDV-RNA (FIG. 6A),[4]; over twenty weeks of treatment,significant decrease
same,mean serum HDV RNA,"[4]; woodchucks 4878, 4879, 4883, by 8 weeks of treatment vs start of treatment and vs five untreated animals (FIG. 8)",dramatic decline
NC(=O)c1ncn([C@@H]2O[C@H](CO)[C@@H](O)[C@H]2O)n1 [Ribavirin],side-effects,[5],severe side-effects
same,virological or biochemical parameters,[5],did not significantly affect
Cc1ccc(C(=O)Nc2ccc(S(=O)(=O)O)c3cc(S(=O)(=O)O)cc(S(=O)(=O)O)c23)cc1NC(=O)c1cccc(NC(=O)Nc2cccc(C(=O)Nc3cc(C(=O)Nc4ccc(S(=O)(=O)O)c5cc(S(=O)(=O)O)cc(S(=O)(=O)O)c45)ccc3C)c2)c1 [suramin],entry of the virion into hepatocytes,[6],blocks
